The values that follow come from patent US8980926B2, “2-aminoindole compounds and methods for the treatment of malaria” (Genzyme Corporation, priority 2009, dated 2015).

This assay has as its system P. falciparum strain 3D7. Nature of the assay: In vitro potency against P. falciparum strain 3D7 (SYBR green/DAPI). It is filed as cell-based. The following applies: Plasmodium falciparum, reductions in parasitemia, read-out: IC50 values.

Consider `NC1=Nc2ccc(Cl)cc2C1(O)Cc1nc2ccccc2s1` (centres unmarked) [Compound 139], for which the IC50 (in general, the concentration at which inhibition is half-maximal) is 1 to 100 nM.
With `COc1ccc(Cl)cc1C1(O)C(N)=Nc2ccc(Cl)cc21` (centres unmarked) [Compound 140] the figure was 1 to 100 nM; with `CCOc1ccccc1C1(O)C(N)=Nc2ccc(Cl)cc21` (centres unmarked) [Compound 141], 1 to 100 nM; with `Cc1ccc2c(c1)C(O)(c1cccc3ccsc13)C(N)=N2` (centres unmarked) [Compound 143], 1 to 100 nM.
`NC1=Nc2ccc(Cl)cc2C1(O)c1cc2ccccc2o1` (centres unmarked) [Compound 144]: the IC50 fell in the range of 1 to 100 nM.
Take `COc1ccc(F)cc1C1(O)C(N)=Nc2ccc(Cl)cc21` (centres unmarked) [Compound 145]: the IC50 was in the range of 1 to 100 nM.
With `CCOc1ccc(OC)cc1C1(O)C(N)=Nc2ccc(Cl)cc21` (centres unmarked) [Compound 147] the figure was 1 to 100 nM; with `NC1=Nc2ccc(Cl)cc2C1(O)c1ccc2ncsc2c1` (centres unmarked) [Compound 148], 100 to 500 nM.
With `CN1CCN(c2ccccc2C2(O)C(N)=Nc3ccc(Cl)cc32)CC1` (centres unmarked) [Compound 149] the figure was 500 to 1000 nM; with `NC1=Nc2ccc(Cl)cc2C1(O)c1cccc2ccoc12` (centres unmarked) [Compound 150], 1 to 100 nM; with `NC1=Nc2ccc(Cl)cc2C1(O)c1ccccc1OC1CCC1` (centres unmarked) [Compound 151], 1 to 100 nM.
For `COc1ccc(OC(C)C)c(C2(O)C(N)=Nc3ccc(Cl)cc32)c1` (centres unmarked) [Compound 152], the IC50 fell in the range of 1 to 100 nM.
Take `COc1ccc2c(c1)C(O)(c1cc3ccccc3s1)C(N)=N2` (centres unmarked) [Compound 153]: the IC50 lay in the range of 1 to 100 nM.
With `CC(C)Oc1ccc(F)cc1C1(O)C(N)=Nc2ccc(Cl)cc21` (centres unmarked) [Compound 154] the figure was 1 to 100 nM; with `CCOc1ccc(Cl)cc1C1(O)C(N)=Nc2ccc(Cl)cc21` (centres unmarked) [Compound 155], 1 to 100 nM; with `CC(C)Oc1ccc(Cl)cc1C1(O)C(N)=Nc2ccc(Cl)cc21` (centres unmarked) [Compound 156], 1 to 100 nM.
Turning to `NC1=Nc2ccc(Cl)cc2C1(O)c1cc(Cl)ccc1OC1CCC1` (centres unmarked) [Compound 157], the IC50 was 1 to 100 nM.
`COc1ccc(OC2CCC2)c(C2(O)C(N)=Nc3ccc(Cl)cc32)c1` (centres unmarked) [Compound 158]: the IC50 was in the range of 1 to 100 nM.
On to `COc1ccc2c(c1)C(O)(c1cccc3ccsc13)C(N)=N2` (centres unmarked) [Compound 159], for which the IC50 lay within 1 to 100 nM.
For `NC1=Nc2ccc(Cl)cc2C1(O)Cc1cc2ccccc2o1` (centres unmarked) [Compound 160] the value was 1 to 100 nM; for `NC1=Nc2ccc(Cl)cc2C1(O)c1ccccc1N1CCCCCC1` (centres unmarked) [Compound 162], 1 to 100 nM; for `CCSc1ccccc1C1(O)C(N)=Nc2ccc(Cl)cc21` (centres unmarked) [Compound 163], 1 to 100 nM.
Take `NC1=Nc2ccc(Cl)cc2C1(O)c1cc(F)ccc1OC1CCC1` (centres unmarked) [Compound 164]: the IC50 was in the range of 1 to 100 nM.
Turning to `COc1ccc(OC2CC2)c(C2(O)C(N)=Nc3ccc(Cl)cc32)c1` (centres unmarked) [Compound 165], the IC50 was in the range of 1 to 100 nM.
For the compound `NC1=Nc2ccc(Br)cc2C1(O)c1cccc2ccsc12` (centres unmarked) [Compound 166], the IC50 lay in the range of 1 to 100 nM.
With `COc1ccc2c(c1)C(O)(c1ccccc1N1CCOCC1)C(N)=N2` (centres unmarked) [Compound 167] the figure was 100 to 500 nM.
For `CC(C)c1ccccc1CC1(O)C(N)=Nc2ccc(Cl)cc21` (centres unmarked) [Compound 168] the value was 1 to 100 nM; for `CSc1ccc(Cl)cc1C1(O)C(N)=Nc2ccc(Cl)cc21` (centres unmarked) [Compound 169], 1 to 100 nM.
For `CC(C)Sc1ccccc1C1(O)C(N)=Nc2ccc(Cl)cc21` (centres unmarked) [Compound 170] the value was 1 to 100 nM; for `CCSc1ccc(Cl)cc1C1(O)C(N)=Nc2ccc(Cl)cc21` (centres unmarked) [Compound 171], 1 to 100 nM; for `CC(C)n1ncc2cccc(C3(O)C(N)=Nc4ccc(Cl)cc43)c21` (centres unmarked) [Compound 172], 500 to 1000 nM.
In the case of `Cc1ccc(CC2(O)C(N)=Nc3ccc(Cl)cc32)o1` (centres unmarked) [Compound 173], the IC50 lay in the range of 100 to 500 nM.
With `CN(C)c1ccc(Cl)cc1C1(O)C(N)=Nc2ccc(Cl)cc21` (centres unmarked) [Compound 174] the figure was 1 to 100 nM; with `NC1=Nc2ccc(Cl)cc2C1(O)c1cc(F)ccc1N1CCCCCC1` (centres unmarked) [Compound 175], 1 to 100 nM; with `CC(C)Sc1ccc(Cl)cc1C1(O)C(N)=Nc2ccc(Cl)cc21` (centres unmarked) [Compound 176], 1 to 100 nM.
For the compound `COc1ccc(OC(C)(C)C)c(C2(O)C(N)=Nc3ccc(Cl)cc32)c1` (centres unmarked) [Compound 177], the IC50 was in the range of 1 to 100 nM.
For `NC1=Nc2ccc(Cl)cc2C1(O)c1cc(F)ccc1N1CCOCC1` (centres unmarked) [Compound 178] the value was 1 to 100 nM.
As to `COc1ccc2c(c1)C(O)(c1cc(F)ccc1N1CCOCC1)C(N)=N2` (centres unmarked) [Compound 179], the 50% inhibitory concentration (IC50) lay within 100 to 500 nM.
With `COc1ccc2c(c1)C(O)(C1CC1)C(N)=N2` (centres unmarked) [Compound 180] the figure was 100 to 500 nM; with `Cc1ccc(CC2(O)C(N)=Nc3ccc(Cl)cc32)s1` (centres unmarked) [Compound 181], 1 to 100 nM.
With `CCSc1ccc(F)cc1C1(O)C(N)=Nc2ccc(Cl)cc21` (centres unmarked) [Compound 182], the IC50 fell in the range of 1 to 100 nM.
With `CC(C)Sc1ccc(F)cc1C1(O)C(N)=Nc2ccc(Cl)cc21` (centres unmarked) [Compound 183] the figure was 1 to 100 nM.
For `NC1=Nc2ccc(Cl)cc2C1(O)c1cc(F)ccc1SC1CCC1` (centres unmarked) [Compound 184] the value was 1 to 100 nM; for `NC1=Nc2ccc(Cl)cc2C1(O)c1cc(SC2CCC2)ccc1F` (centres unmarked) [Compound 185], 1 to 100 nM; for `NC1=Nc2ccc(Cl)cc2C1(O)c1cc(Cl)ccc1F` (centres unmarked) [Compound 186], 1 to 100 nM.
Consider `NC1=Nc2ccc(Cl)cc2C1(O)c1ccccc1SC1CCC1` (centres unmarked) [Compound 187], for which the IC50 was in the range of 1 to 100 nM.
`CC(C)(C)Sc1ccc(F)c(C2(O)C(N)=Nc3ccc(Cl)cc32)c1` (centres unmarked) [Compound 188]: the IC50 lay in the range of 100 to 500 nM.
With `NC1=Nc2ccc(Cl)cc2C1(O)c1cc(Cl)ccc1SC1CCC1` (centres unmarked) [Compound 189] the figure was 1 to 100 nM; with `COc1ccc(SC(C)C)c(C2(O)C(N)=Nc3ccc(Cl)cc32)c1` (centres unmarked) [Compound 190], 1 to 100 nM; with `CCOc1ccc(OC)cc1C1(O)C(N)=Nc2ccccc21` (centres unmarked) [Compound 191], 1 to 100 nM.
For `CN(C)c1ccc(F)cc1C1(O)C(N)=Nc2ccc(Cl)cc21` (centres unmarked) [Compound 192] the value was 1 to 100 nM.
With `CC(C)(C)Sc1ccccc1C1(O)C(N)=Nc2ccc(Cl)cc21` (centres unmarked) [Compound 193] the figure was 1 to 100 nM.
In the case of `CC(C)(C)Oc1ccc(F)cc1C1(O)C(N)=Nc2ccc(Cl)cc21` (centres unmarked) [Compound 194], the IC50 was 1 to 100 nM.
With `COc1ccc(OC2CCC2)c(C2(O)C(N)=Nc3ccccc32)c1` (centres unmarked) [Compound 195] the figure was 1 to 100 nM.
With `CCSc1ccc(OC)cc1C1(O)C(N)=Nc2ccc(Cl)cc21` (centres unmarked) [Compound 196] the figure was 1 to 100 nM; with `NC1=Nc2ccc(Cl)cc2C1(O)C1CCC1` (centres unmarked) [Compound 197], 100 to 500 nM; with `NC1=Nc2ccc(Cl)cc2C1(O)c1cc(F)ccc1F` (centres unmarked) [Compound 198], 100 to 500 nM.
For `NC1=Nc2ccc(Cl)cc2C1(O)c1cc(F)ccc1SC1CC1` (centres unmarked) [Compound 199] the value was 1 to 100 nM.
Consider `NC1=Nc2ccc(Cl)cc2C1(O)c1cc(F)ccc1C1CC1` (centres unmarked) [Compound 200], for which the IC50 was in the range of 1 to 100 nM.
With `COc1cnc(OC)c(C2(O)C(N)=Nc3ccc(Cl)cc32)c1` (centres unmarked) [Compound 201] the figure was 1 to 100 nM.
For `CSc1ccc(F)cc1C1(O)C(N)=Nc2ccc(Cl)cc21` (centres unmarked) [Compound 203] the value was 1 to 100 nM; for `CSc1ccc(F)c(C2(O)C(N)=Nc3ccc(Cl)cc32)c1` (centres unmarked) [Compound 204], 1 to 100 nM.
